Values of other authors, collected in patent publication US8795652B1, “Methods and compositions to treat myocardial conditions” (Abbott Cardiovascular Systems Inc., priority 2003, dated 2014).

| SMILES | O2 solubility at 37° C. [V %] | arterial oxygen saturation (ductus arteriosus; four neonates, infused prior to and during surgery) | side effects (ductus arteriosus; in vivo) |
| --- | --- | --- | --- |
| FC(F)(F)C(F)(F)C(F)(F)C(F)(F)CCC(F)(F)C(F)(F)C(F)(F)C(F)(F)F [F-44E, 1,2-bis(perfluorobutyl)ethane] | 50 | – | – |
| FC1(F)C(F)(F)C(F)(F)C2(F)C(F)(F)C(F)(F)C(F)(F)C(F)(F)C2(F)C1(F)F (stereo not shown) [FDC, Perfluorodecalin] | 45 | – | – |
| CCCCC[C@H](O)/C=C/[C@H]1[C@H](O)CC(=O)[C@@H]1C/C=C\CCCC(=O)O [PGE2, prostaglandin E2] | – | immediate and persistent rise | No major side effects occurred, except for pyrexia in two infants |
